In patent US20250186405A1, “Compound For Use In Treating Narcolepsy” (Alkermes, Inc., priority 2023, published 2025):
Where “and” joins values, the source holds several entries; their conditions need not be identical. Equal values may be shown once.

Tests used:
Type in all cases: in vivo, human
[1] = system: subjects with narcolepsy type-2 (NT2); assay: Part 5 NT2: Karolinska Sleepiness Scale (KSS); conditions: for Change From Day −1 in Average Karolinska Sleepiness Scale, LSM difference vs placebo: NT2, N = 9; for Change From Day −1 in Average Karolinska Sleepiness Scale, LSM: NT2, N = 9, average of 1, 2, 4, 6, 8 h
Protocol: At points within the study, subjects were asked to rate their sleepiness using the KSS with regard to the level of sleepiness they experienced over the past 5 minutes.
The KSS is a validated, self-reported outcome measure of subjective sleepiness. The KSS was developed as a one-dimensional measure of sleepiness and has been validated against assessments like EEG and electrooculography activity (Akerstedt and Gillberg 1990). The KSS is comprised of a single question that asks the subject to rate their sleepiness in the immediately preceding 5 minutes on a 9-point scale where 1=extremely alert and 9=very sleepy, great effort to keep awake, fighting sleep. The KSS takes approximately 10 to 15 seconds to complete. Thus, the KSS is well suited for repeated measurement at short intervals as it assesses situational sleepiness within a short timeframe.
The PD parameters in the POC evaluation (e.g., changes from baseline in sleep latency on MWT, number of errors on SART and level of sleepiness on KSS at matched time points) were summarized using descriptive statistics for each time point by dose level.

[2] = system: subjects with narcolepsy type-2 (NT2); assay: Part 5 NT2: Maintenance of Wakefulness Test (MWT) sleep latency; conditions: for Change from Day −1 in Average Sleep Latency on the MWT, LSM / Change from Day −1 in Average Sleep Latency on the MWT, LSM difference vs placebo: NT2, N = 9; for Average Sleep Latency on the MWT, Change from Day −1, Mean (SD) / Average Sleep Latency on the MWT, Change from Day −1, Median / Average Sleep Latency on the MWT, Dosing Day, Mean (SD) / Average Sleep Latency on the MWT, Dosing Day, Median: NT2, n = 9; for LS mean difference vs placebo in change from baseline, average MWT sleep latency: 2-8 hours post-dose
Protocol: On Day −1, approximately 25 hours prior to study drug administration (on Day 1), baseline assessments for Maintenance of Wakefulness Test (MWT) began and were collected in a series of trials over approximately 10 hours.
At specified time points (Parts 5 and 6), MWT assessments were performed and took up to 40 minutes to complete. During the MWT trials, subjects were seated in a bed or reclining chair in a darkened room with their back and head supported such that their neck is not uncomfortably flexed or extended. Subjects were instructed to sit still and remain awake for as long as possible during each 40-minute trial. If the subject fell asleep during a trial, they were awakened, and the trial was terminated. […] Upon completion of the trial, the subject returned to a normal environment/ambiance and remained awake (and were awakened if they fall asleep) until the next trial.
Once Parts 5 and 6 were completed, the EEG data recorded during the MWT, as well as the technician notes, were transferred to the EEG vendor for further analysis. Technician notes were also maintained for transfer to Sponsor at the end of the study. A precise assessment of sleep latency was conducted by an experienced sleep scorer from the EEG vendor, and spectral analysis was performed on the EEG data recorded during MWT to assess absolute and relative powers in standard frequency bands (i.e., qEEG). All raw data and analysis results were transferred to the Sponsor.
For the changes from baseline in average sleep latency across the first 4 sessions of the MWT, descriptive statistics were provided by dose level. Mixed model with repeated measure (MMRM) for the 4-period crossover design were conducted with the change from baseline as a dependent variable, and the dose level and the period as fixed factors. The differences in the least square means between each Compound A dose level and the placebo (each Compound A dose level—the placebo), and the 2-sided CIs were provided.
Evaluation of Compound A effects on average sleep latency across 4 timepoints of MWT (2-, 4-, 6-, and 8-hours post-dose) has been conducted at each of the crossover periods (Days 1, 3, 5 and 7), testing placebo, and active dose levels of 5, 12, and 25 mg in the patients with NT2 compared to placebo. At pre-dose baseline on Day −1, MWT assessment was taken at similar times (2-, 4-, 6-, and 8-hours) as planned on dosing days assuming a dosing time of approximately 9 AM. Mean (SD) of baseline MWT average across the 4 time points on Day −1 was 14.31 (11.201), with high variability observed for NT2 subjects.

[3] = system: healthy adult subjects; assay: Part 3 RelBA with FE: safety; conditions: 10 mg
Protocol: Part 3 compared the relative bioavailability (RelBA) of Compound A between a tablet formulation and the powder-in-capsule formulation. In addition, the food effect (FE) on the bioavailability of Compound A was assessed following administration of tablet formulation. Dose levels were as follows:
The Part 3 (RelBA with FE) evaluation was conducted using a 2-sequence, 3-period crossover study design in approximately 12 subjects. Subjects in Part 3 were randomized 1:1 to receive 1 of 2 sequences consisting of 3 periods with up to 72 hours of washout between treatments. The first 2 periods were dosed under fasted state and the third period was dosed in a fed state (high-fat meal).
In treatment period(s) under the fed condition, following overnight fast, all subjects were given a high-fat breakfast. Within 30 minutes of starting the consumption of the breakfast, the assigned treatment was administered. […] There was a 72-hour washout period between the treatments.

CS(=O)(=O)N[C@H]1CCCN2C(=O)COc3ccccc3C3CCC(CC3)OCC12 (stereo partly drawn) [Compound A, N-[(4S,4aR,7α,10α)-1,2,3,4,4a,5,7,8,9,10,16,17-dodecahydro-17-oxo-7,10-ethanopyrido[1,2-d][1,7,4]benzodioxaazacyclotridecin-4-yl]methanesulfonamide]
Change From Day −1 in Average Karolinska Sleepiness Scale, LSM difference vs placebo ([1]; 5 mg): −0.31
Change From Day −1 in Average Karolinska Sleepiness Scale, LSM ([1]; 5 mg): −0.68
Change From Day −1 in Average Karolinska Sleepiness Scale, LSM difference vs placebo ([1]; 12 mg): −0.60
Change From Day −1 in Average Karolinska Sleepiness Scale, LSM ([1]; 12 mg): −0.97
Change From Day −1 in Average Karolinska Sleepiness Scale, LSM difference vs placebo ([1]; 25 mg): −1.42
Change From Day −1 in Average Karolinska Sleepiness Scale, LSM ([1]; 25 mg): −1.78
LS mean difference vs placebo in change from Day −1, average KSS ([1]; NT2, 5 mg): −0.31
LS mean difference vs placebo in change from Day −1, average KSS ([1]; NT2, 12 mg): −0.60
LS mean difference vs placebo in change from Day −1, average KSS ([1]; NT2, 25 mg): −1.42
Change from Day −1 in Average Sleep Latency on the MWT, LSM ([2]; 5 mg): 11.68 min
Change from Day −1 in Average Sleep Latency on the MWT, LSM difference vs placebo ([2]; 5 mg): 11.60 min
Average Sleep Latency on the MWT, Change from Day −1, Mean (SD) ([2]; 5 mg): 11.65 (14.736) minutes
Average Sleep Latency on the MWT, Change from Day −1, Median ([2]; 5 mg): 8.50 min
Average Sleep Latency on the MWT, Dosing Day, Mean (SD) ([2]; 5 mg): 25.95 (12.409) minutes
Average Sleep Latency on the MWT, Dosing Day, Median ([2]; 5 mg): 26.63 min
Change from Day −1 in Average Sleep Latency on the MWT, LSM ([2]; 12 mg): 18.63 min
Change from Day −1 in Average Sleep Latency on the MWT, LSM difference vs placebo ([2]; 12 mg): 18.55 min
Average Sleep Latency on the MWT, Change from Day −1, Mean (SD) ([2]; 12 mg): 18.63 (10.892) minutes
Average Sleep Latency on the MWT, Change from Day −1, Median ([2]; 12 mg): 19.50 min
Average Sleep Latency on the MWT, Dosing Day, Mean (SD) ([2]; 12 mg): 32.93 (9.836) minutes
Average Sleep Latency on the MWT, Dosing Day, Median ([2]; 12 mg): 40.00 min
Change from Day −1 in Average Sleep Latency on the MWT, LSM ([2]; 25 mg): 21.04 min
Change from Day −1 in Average Sleep Latency on the MWT, LSM difference vs placebo ([2]; 25 mg): 20.96 min
Average Sleep Latency on the MWT, Change from Day −1, Mean (SD) ([2]; 25 mg): 21.14 (12.126) minutes
Average Sleep Latency on the MWT, Change from Day −1, Median ([2]; 25 mg): 17.25 min
Average Sleep Latency on the MWT, Dosing Day, Mean (SD) ([2]; 25 mg): 35.44 (7.720) minutes
Average Sleep Latency on the MWT, Dosing Day, Median ([2]; 25 mg): 40.00 min
LS mean difference vs placebo in change from baseline, average MWT sleep latency ([2]; NT2, 5 mg): 11.60 min and 11.6 min and 12 min
observed mean MWT score over 8-hour period post-dose ([2]; NT2, 12 mg): ≥ 30 min
LS mean difference vs placebo in change from baseline, average MWT sleep latency ([2]; NT2, 12 mg): 18.55 min and 18.6 min and 19 min
observed mean MWT score over 8-hour period post-dose ([2]; NT2, 25 mg): ≥ 30 min
LS mean difference vs placebo in change from baseline, average MWT sleep latency ([2]; NT2, 25 mg): 20.96 min and 21.0 min and 21 min
Tolerability ([3]; fed and fasted conditions): well tolerated
subjects reporting at least one AE (of 12) ([3]; three administrations): 11
